# Source: US9925162B2, “Methods and compositions for inducing physiological hypertrophy” (THE REGENTS OF THE UNIVERSITY OF COLORADO, priority 2009, dated 2018)
# Key:
# [1] = system: neonatal rat cardiomyocytes; test: Fasted plasma supplemented with fatty acids, NRVM cell size; format: cell-based; details: fasted plasma 2% supplemented to 1 DPF-like levels (C14 40 μM; C16 137 μM; C16:1 7.5 μM), 48 hours, FIG. 10
# Procedure: (§1) Individual fatty acids were complexed to BSA as described by de Vries et al. (J. Lipid Res.; 38:1384-1394; 1997), which is hereby incorporated by reference. […] An equal volume of Na2CO3 (10 mM) was added and the ethanol was evaporated at 60° C. under continuous N2 flow. The fatty acid mix was added dropwise to 10% BSA. BSA/fatty acid complexes were then dialyzed four times at 4° C. during 4-6 hours in NH4HCO3 (0.1 M). Complexes were then frozen, lyophilized overnight, and resuspended in NRVM rinse media (MEM/PB12/Hepes) for a final concentration of 7 mM. NRVMs were treated with fasted serum, 1 day post-fed serum, or fasted serum+individual fatty acids. […] NRVM gene expression and mean cell diameter were determined after either 24 or 48 hours, respectively.
# Aquaporin 7 = test: Aqp7 mRNA by qPCR after fatty acid treatment; format: cell-based, rat; details: fasted plasma supplemented with FFAs, relative to 1 DPF plasma, FIG. 11
# Procedure: as §1
# [2] = system: Neonatal rat ventricular myocytes (NRVMs); test: Inhibition of fatty acid transport blocks serum-induced NRVM hypertrophy; format: cell-based; details: Coulter Counter
# Procedure: Synthesis of Sulfo-N-succinimidyl oleate (SSO) was performed as described by Harmon et al. (J. Membr Biol.; 121:261-268; 1991), which is hereby incorporated by reference. Briefly, oleate (0.25 mM), HOSu(SO3)Na (0.25 mM), and dicyclohexylcarbodiimide (DCC) (0.275 mM) were dissolved in 0.5 ml of dry N,N-dimethylformamide (DMF) and stirred overnight at room temperature. Precipitated dicyclohexyturea was removed by filtration, and the filtrate cooled to 3° C. for 4 hours. Eight volumes of ethyl acetate were added, and the precipitated product was collected by filtration under nitrogen and then stored in a vacuumed desiccator over phosphorus pentoxide. Neonatal rat ventricular myocytes (NRVMs) were cultured in serum-free media (MEM/Hepes/PB12) containing insulin, transferrin, BSA, and BrdU. NRVMs were treated with serum (2%) in the presence and absence of SSO (400 μM) for 48 hours and cell size was determined using a Coulter Counter.
SMILES,changes in cell size [1],Aqp7 mRNA levels (Aquaporin 7),"cell growth induced by the fed-serum ([2]; SSO 400 μM, 2% 1DPF serum, 48 hours)",cell size ([2]; SSO and no serum (control))
"CCCCCCCCCCCCCC(=O)O [C14, tetradecanoic acid]",significant increase,comparable levels observed with 1 DPF plasma,,
"CCCCCCCC/C=C\CCCCCCCC(=O)ON1C(=O)CC(S(=O)(=O)O)C1=O (stereo not shown) [SSO, Sulfo-N-succinimidyl oleate]",,,completely blocks,smaller
